pIC50: −log10 of the molar value.
Key:
HeLa = assay: Cytotoxicity against human HeLa cells assessed as reduction in cell viability by MTT assay; assay type: functional, cell-based
[1] = tested on: Cladosporium cladosporioides; assay: Antifungal activity against Cladosporium cladosporioides (Fresen) Vries SPC 140 assessed as detection limit for activity by bioautographic method; assay type: functional
[2] = tested on: Cladosporium sphaerospermum; assay: Antifungal activity against Cladosporium sphaerospermum (Perzig) SPC 491 assessed as detection limit for activity by bioautographic method; assay type: functional

CCCCCCC[C@H]1OC2=C(C(=O)O[C@@H]2C)[C@@H](O)[C@]1(C)O
pIC50 (HeLa): 4.00
Activity [1]: 5 µg
Activity [2]: 5 µg

CCCCCCC[C@H]1OC2=C(C(=O)O[C@@]2(C)O)[C@@H](O)[C@]1(C)O
pIC50 (HeLa): < 4.00

CCCCCCC[C@H]1OC2=C(C(=O)O[C@@H]2C)[C@@H](O)[C@@]1(C)O
pIC50 (HeLa): < 4.00
Activity [1]: 25 µg
Activity [2]: 25 µg

CC[C@@]1(O)C(=O)OCc2c1cc1n(c2=O)Cc2cc3ccccc3nc2-1 [CAMPTOTHECIN]
pIC50 (HeLa): 6.92

NYSTATIN
Activity [1]: 1 µg
Activity [2]: 1 µg

CCCCCCC[C@H]1OC2=C(C(=O)[C@@H](C)O2)[C@@H](O)[C@]1(C)O
pIC50 (HeLa): 4.30
Activity [1]: 5 µg
Activity [2]: 5 µg

— ChEMBL document CHEMBL4118037, “Lactone Derivatives Produced by a Phaeoacremonium sp., an Endophytic Fungus from Senna spectabilis” (J Nat Prod, 2017)
